The text below walks through data of patent publication US20130225675A1, “BACTERIAL CONTROL OF WATER BASED FLUIDS DURING […] AND […] TIME IN THE SU[…]” (SCHLUMBERGER TECHNOLOGY CORPORATION, priority 2010, published 2013).

SMILES strings stand for the structures.

This test deals with Sulfate-Reducing Bacteria. The test is described as follows: Qualitative test kit specific to sulfate-reducing bacteria, produced water samples. In kind it is cell-based. Conditions: produced water from the Piceance basin, 250 ppm glutaraldehyde, "Glut+butenolide" with a further 125 ppm butenolide. As to the method:
Produced water samples from the Piceancebasin were tested for bacterial content in a simple qualitative test kit manufactured by “Droycon Boiconcepts Inc., specific to Sulfate-Reducing Bacteria. Three kits were used, labeled “No treatment”, “Glutaraldehyde”, and “Glut+butenolide”. The latter two bottles were treated with 250 ppm glutaraldehyde.
FIG. 1 is a photograph series that compares the experimental results of testing the effectiveness of biocide compositions.

Consider `O=CCCCC=O` [Glutaraldehyde, glutaraldehyde], for which the “appearance of the test bottle (black residues characteristic of the presence of SRBs)” value (after 14 days) is “clear and pale yellow”. The “appearance of the test bottle (re-growth of SRBs, fine black residues)” value (after 17 days) is “begun to show re-growth of SRBs”.
